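The compound was tested at five concentrations on cells cultured in 96-well plates, with a 48-hour exposure period. GI50 is the concentration that inhibits growth by half. TGI: total growth inhibition.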
Experiments:
Assay in all cases: growth of human tumour cells (NCI), 48 h
SK-OV-3 ovarian = tested on: SK-OV-3 ovarian
U251 CNS = tested on: U251 CNS
K-562 leukemia = tested on: K-562 leukemia
SNB-19 CNS = tested on: SNB-19 CNS
SN12C renal = tested on: SN12C renal
HCT-15 colon = tested on: HCT-15 colon
MDA-MB-231 breast = tested on: MDA-MB-231 breast
A498 renal = tested on: A498 renal
786-0 renal = tested on: 786-0 renal
NCI/ADR-RES ovarian = tested on: NCI/ADR-RES ovarian
NCI-H226 lung = tested on: NCI-H226 lung
T-47D breast = tested on: T-47D breast
HOP-62 NSCLC = tested on: HOP-62 NSCLC
SW-620 colon = tested on: SW-620 colon
HT29 colon = tested on: HT29 colon
OVCAR-4 ovarian = tested on: OVCAR-4 ovarian
MCF7 breast = tested on: MCF7 breast
NCI-H460 lung = tested on: NCI-H460 lung
OVCAR-5 ovarian = tested on: OVCAR-5 ovarian
SK-MEL-5 melanoma = tested on: SK-MEL-5 melanoma
MDA-MB-435 = tested on: MDA-MB-435
IGROV1 ovarian = tested on: IGROV1 ovarian
CAKI-1 renal = tested on: CAKI-1 renal
MALME-3M melanoma = tested on: MALME-3M melanoma
RXF 393 renal = tested on: RXF 393 renal
LOX IMVI melanoma = tested on: LOX IMVI melanoma
UACC-257 melanoma = tested on: UACC-257 melanoma
SK-MEL-2 melanoma = tested on: SK-MEL-2 melanoma
SR leukemia = tested on: SR leukemia
M14 melanoma = tested on: M14 melanoma
ACHN renal = tested on: ACHN renal
A549 NSCLC = tested on: A549 NSCLC
UO-31 renal = tested on: UO-31 renal
UACC-62 melanoma = tested on: UACC-62 melanoma
NCI-H522 lung = tested on: NCI-H522 lung
SF-539 CNS = tested on: SF-539 CNS
SF-268 CNS = tested on: SF-268 CNS
BT-549 breast = tested on: BT-549 breast
SNB-75 CNS = tested on: SNB-75 CNS
CCRF-CEM leukemia = tested on: CCRF-CEM leukemia
HS 578T breast = tested on: HS 578T breast
SF-295 CNS = tested on: SF-295 CNS
HL-60(TB) leukemia = tested on: HL-60(TB) leukemia
OVCAR-3 ovarian = tested on: OVCAR-3 ovarian
DU-145 prostate = tested on: DU-145 prostate
HCT-116 colon = tested on: HCT-116 colon
RPMI-8226 leukemia = tested on: RPMI-8226 leukemia
SK-MEL-28 melanoma = tested on: SK-MEL-28 melanoma
OVCAR-8 ovarian = tested on: OVCAR-8 ovarian
MOLT-4 leukemia = tested on: MOLT-4 leukemia
KM12 colon = tested on: KM12 colon
COLO 205 colon = tested on: COLO 205 colon
HOP-92 NSCLC = tested on: HOP-92 NSCLC
HCC-2998 colon = tested on: HCC-2998 colon
PC-3 prostate = tested on: PC-3 prostate
EKVX NSCLC = tested on: EKVX NSCLC
NCI-H23 lung = tested on: NCI-H23 lung
TK-10 renal = tested on: TK-10 renal

`CC1(C)N=C(N)N=C(N)N1c1ccc(OCCCCNC(=O)Nc2cccc(S(=O)(=O)F)c2)c(Cl)c1` was tested, and the GI50 (SK-OV-3 ovarian) was greater than 100 µM, the TGI (SK-OV-3 ovarian) was greater than 100 µM and the GI50 (U251 CNS) was 0.674 µM. It also gave a TGI (U251 CNS) greater than 100 µM, a GI50 (K-562 leukemia) of 0.351 µM and a TGI (K-562 leukemia) greater than 100 µM. For the same molecule, the GI50 (SNB-19 CNS) was 2.91 µM, the TGI (SNB-19 CNS) was greater than 100 µM and the GI50 (SN12C renal) was 0.577 µM. It also gave a TGI (SN12C renal) greater than 100 µM, a GI50 (HCT-15 colon) of 10.6 µM and a TGI (HCT-15 colon) greater than 100 µM. For the same molecule, the GI50 (MDA-MB-231 breast) was 6.57 µM, the TGI (MDA-MB-231 breast) was greater than 100 µM and the GI50 (A498 renal) was 14.5 µM. For the same molecule, the TGI (A498 renal) was greater than 100 µM, the GI50 (786-0 renal) was 2.75 µM and the TGI (786-0 renal) was greater than 100 µM. For the same molecule, the GI50 (NCI/ADR-RES ovarian) was greater than 100 µM, the TGI (NCI/ADR-RES ovarian) was greater than 100 µM and the GI50 (NCI-H226 lung) was 7.95 µM. For the same molecule, the TGI (NCI-H226 lung) was greater than 100 µM, the GI50 (T-47D breast) was 15.8 µM and the TGI (T-47D breast) was greater than 100 µM. It also gave a GI50 (HOP-62 NSCLC) of 10.6 µM, a TGI (HOP-62 NSCLC) greater than 100 µM and a GI50 (SW-620 colon) of 0.657 µM. For the same molecule, the TGI (SW-620 colon) was greater than 100 µM, the GI50 (HT29 colon) was 0.611 µM and the TGI (HT29 colon) was greater than 100 µM. The GI50 (OVCAR-4 ovarian) was 13.3 µM, the TGI (OVCAR-4 ovarian) was greater than 100 µM and the GI50 (MCF7 breast) was 2.09 µM. The TGI (MCF7 breast) was greater than 100 µM, the GI50 (NCI-H460 lung) was 0.377 µM and the TGI (NCI-H460 lung) was 25.3 µM. For the same molecule, the GI50 (OVCAR-5 ovarian) was 2.26 µM, the TGI (OVCAR-5 ovarian) was greater than 100 µM and the GI50 (SK-MEL-5 melanoma) was 1.11 µM. The TGI (SK-MEL-5 melanoma) was 23.7 µM, the GI50 (MDA-MB-435) was 0.642 µM and the TGI (MDA-MB-435) was greater than 100 µM. The GI50 (IGROV1 ovarian) was 0.581 µM, the TGI (IGROV1 ovarian) was greater than 100 µM and the GI50 (CAKI-1 renal) was 35.4 µM. It also gave a TGI (CAKI-1 renal) greater than 100 µM, a GI50 (MALME-3M melanoma) of 29.6 µM and a TGI (MALME-3M melanoma) greater than 100 µM. For the same molecule, the GI50 (RXF 393 renal) was 0.735 µM, the TGI (RXF 393 renal) was greater than 100 µM and the GI50 (LOX IMVI melanoma) was 0.491 µM. For the same molecule, the TGI (LOX IMVI melanoma) was greater than 100 µM, the GI50 (UACC-257 melanoma) was 3.73 µM and the TGI (UACC-257 melanoma) was greater than 100 µM. It also gave a GI50 (SK-MEL-2 melanoma) of 13.6 µM, a TGI (SK-MEL-2 melanoma) greater than 100 µM and a GI50 (SR leukemia) of 1.02 µM. For the same molecule, the TGI (SR leukemia) was greater than 100 µM, the GI50 (M14 melanoma) was 3.96 µM and the TGI (M14 melanoma) was greater than 100 µM. The GI50 (ACHN renal) was 22.3 µM, the TGI (ACHN renal) was greater than 100 µM and the GI50 (A549 NSCLC) was 2.27 µM. The TGI (A549 NSCLC) was greater than 100 µM, the GI50 (UO-31 renal) was 40.5 µM and the TGI (UO-31 renal) was greater than 100 µM. For the same molecule, the GI50 (UACC-62 melanoma) was 0.491 µM, the TGI (UACC-62 melanoma) was greater than 100 µM and the GI50 (NCI-H522 lung) was 1.83 µM. The TGI (NCI-H522 lung) was 69.7 µM, the GI50 (SF-539 CNS) was 1.27 µM and the TGI (SF-539 CNS) was 8.5 µM. It also gave a GI50 (SF-268 CNS) of 0.649 µM, a TGI (SF-268 CNS) greater than 100 µM and a GI50 (BT-549 breast) of 12.5 µM. For the same molecule, the TGI (BT-549 breast) was greater than 100 µM, the GI50 (SNB-75 CNS) was 2.98 µM and the TGI (SNB-75 CNS) was 48.7 µM. The GI50 (CCRF-CEM leukemia) was 0.95 µM, the TGI (CCRF-CEM leukemia) was greater than 100 µM and the GI50 (HS 578T breast) was 19.3 µM. The TGI (HS 578T breast) was greater than 100 µM, the GI50 (SF-295 CNS) was 5.59 µM and the TGI (SF-295 CNS) was greater than 100 µM. For the same molecule, the GI50 (HL-60(TB) leukemia) was 0.61 µM, the TGI (HL-60(TB) leukemia) was greater than 100 µM and the GI50 (OVCAR-3 ovarian) was 6.89 µM. The TGI (OVCAR-3 ovarian) was greater than 100 µM, the GI50 (DU-145 prostate) was 3.83 µM and the TGI (DU-145 prostate) was greater than 100 µM. The GI50 (HCT-116 colon) was 0.594 µM, the TGI (HCT-116 colon) was greater than 100 µM and the GI50 (RPMI-8226 leukemia) was 3 µM. For the same molecule, the TGI (RPMI-8226 leukemia) was 93.3 µM, the GI50 (SK-MEL-28 melanoma) was 6.04 µM and the TGI (SK-MEL-28 melanoma) was greater than 100 µM. It also gave a GI50 (OVCAR-8 ovarian) of 4.28 µM, a TGI (OVCAR-8 ovarian) greater than 100 µM and a GI50 (MOLT-4 leukemia) of 4.08 µM. It also gave a TGI (MOLT-4 leukemia) greater than 100 µM, a GI50 (KM12 colon) of 2.64 µM and a TGI (KM12 colon) greater than 100 µM. For the same molecule, the GI50 (COLO 205 colon) was 3.78 µM, the TGI (COLO 205 colon) was greater than 100 µM and the GI50 (HOP-92 NSCLC) was 27.1 µM. For the same molecule, the TGI (HOP-92 NSCLC) was greater than 100 µM, the GI50 (HCC-2998 colon) was 5.22 µM and the TGI (HCC-2998 colon) was greater than 100 µM. It also gave a GI50 (PC-3 prostate) of 0.0995 µM and a TGI (PC-3 prostate) greater than 100 µM.
`CC(C)(CC1(C)NC(=O)NC1=O)OCc1ccccc1` (configuration not stated) was tested, and the TGI (SK-OV-3 ovarian) was greater than 100 µM, the TGI (U251 CNS) was greater than 100 µM and the TGI (K-562 leukemia) was greater than 100 µM. It also gave a TGI (SNB-19 CNS) greater than 100 µM, a TGI (SN12C renal) greater than 100 µM and a TGI (EKVX NSCLC) greater than 100 µM. The TGI (HCT-15 colon) was greater than 100 µM, the TGI (MDA-MB-231 breast) was greater than 100 µM and the TGI (A498 renal) was greater than 100 µM. It also gave a TGI (786-0 renal) greater than 100 µM, a TGI (NCI/ADR-RES ovarian) greater than 100 µM and a TGI (T-47D breast) greater than 100 µM. It also gave a TGI (HOP-62 NSCLC) greater than 100 µM, a TGI (SW-620 colon) greater than 100 µM and a TGI (HT29 colon) greater than 100 µM. It also gave a TGI (OVCAR-4 ovarian) greater than 100 µM, a TGI (MCF7 breast) greater than 100 µM and a TGI (NCI-H460 lung) greater than 100 µM. It also gave a TGI (OVCAR-5 ovarian) greater than 100 µM, a TGI (SK-MEL-5 melanoma) greater than 100 µM and a TGI (MDA-MB-435) greater than 100 µM. It also gave a TGI (IGROV1 ovarian) greater than 100 µM, a TGI (CAKI-1 renal) greater than 100 µM and a TGI (MALME-3M melanoma) greater than 100 µM. For the same molecule, the TGI (RXF 393 renal) was greater than 100 µM, the TGI (LOX IMVI melanoma) was greater than 100 µM and the TGI (UACC-257 melanoma) was greater than 100 µM. The TGI (SK-MEL-2 melanoma) was greater than 100 µM, the TGI (NCI-H23 lung) was greater than 100 µM and the TGI (SR leukemia) was greater than 100 µM. The TGI (M14 melanoma) was greater than 100 µM, the TGI (ACHN renal) was greater than 100 µM and the TGI (A549 NSCLC) was greater than 100 µM. The TGI (UO-31 renal) was greater than 100 µM, the TGI (UACC-62 melanoma) was greater than 100 µM and the TGI (NCI-H522 lung) was greater than 100 µM. For the same molecule, the TGI (SF-268 CNS) was greater than 100 µM, the TGI (BT-549 breast) was greater than 100 µM and the TGI (SNB-75 CNS) was greater than 100 µM. For the same molecule, the TGI (HS 578T breast) was greater than 100 µM, the TGI (SF-295 CNS) was greater than 100 µM and the TGI (OVCAR-3 ovarian) was greater than 100 µM. The TGI (DU-145 prostate) was greater than 100 µM, the TGI (HCT-116 colon) was greater than 100 µM and the TGI (RPMI-8226 leukemia) was greater than 100 µM. For the same molecule, the TGI (SK-MEL-28 melanoma) was greater than 100 µM, the TGI (OVCAR-8 ovarian) was greater than 100 µM and the TGI (KM12 colon) was greater than 100 µM. For the same molecule, the TGI (TK-10 renal) was greater than 100 µM, the TGI (HOP-92 NSCLC) was greater than 100 µM and the TGI (HCC-2998 colon) was greater than 100 µM. The TGI (PC-3 prostate) was greater than 100 µM.

— PubChem BioAssay (NCI)
